Test results published in article PMC8348686, “The Pharmacological Profile of Second Generation Pyrovalerone Cathinones and Related Cathinone Derivative” (International Journal of Molecular Sciences, 2021).

Assays:
h5-HT2A receptor [1] = target: T1, h5-HT2A receptor (Homo sapiens, UniProt P28223); design: expressed in transfected cells; host or cells: HEK293 cell preparations; method as in Rickli et al. (2015); conditions: read-out: h5-HT2A Activation Potency EC50 ± SD; ref Rickli et al. (2015); cited from earlier work
T1 sequence (P28223 whole entry): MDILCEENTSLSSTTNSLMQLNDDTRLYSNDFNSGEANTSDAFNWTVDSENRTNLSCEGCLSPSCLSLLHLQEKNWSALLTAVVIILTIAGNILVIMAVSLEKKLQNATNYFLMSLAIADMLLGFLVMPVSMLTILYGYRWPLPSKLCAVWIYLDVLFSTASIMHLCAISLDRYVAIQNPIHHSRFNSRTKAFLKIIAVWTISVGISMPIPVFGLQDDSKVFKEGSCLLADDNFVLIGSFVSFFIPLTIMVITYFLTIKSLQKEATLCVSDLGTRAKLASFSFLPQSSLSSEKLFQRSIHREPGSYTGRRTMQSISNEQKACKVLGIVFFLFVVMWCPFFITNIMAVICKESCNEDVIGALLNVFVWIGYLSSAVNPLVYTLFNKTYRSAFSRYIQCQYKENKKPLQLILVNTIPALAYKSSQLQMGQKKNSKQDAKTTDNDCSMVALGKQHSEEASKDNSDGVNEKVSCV

h5-HT2A receptor [2] = target: T1, h5-HT2A receptor; design: expressed in transfected cells; host or cells: HEK293 cell preparations; conditions: read-out: h5-HT2A Receptor Binding Ki ± SD; [3H]-Ketanserin; ref Rickli et al. (2015); cited from earlier work
h5-HT2B receptor = target: T2, h5-HT2B receptor (Homo sapiens, UniProt P41595); design: method as in Rickli et al. (2015); conditions: read-out: h5-HT2B Activation Potency EC50 ± SD; ref Rickli et al. (2015); cited from earlier work
T2 construct: expressed in transfected cells; host or cells: HEK293
T2 sequence (P41595 whole entry): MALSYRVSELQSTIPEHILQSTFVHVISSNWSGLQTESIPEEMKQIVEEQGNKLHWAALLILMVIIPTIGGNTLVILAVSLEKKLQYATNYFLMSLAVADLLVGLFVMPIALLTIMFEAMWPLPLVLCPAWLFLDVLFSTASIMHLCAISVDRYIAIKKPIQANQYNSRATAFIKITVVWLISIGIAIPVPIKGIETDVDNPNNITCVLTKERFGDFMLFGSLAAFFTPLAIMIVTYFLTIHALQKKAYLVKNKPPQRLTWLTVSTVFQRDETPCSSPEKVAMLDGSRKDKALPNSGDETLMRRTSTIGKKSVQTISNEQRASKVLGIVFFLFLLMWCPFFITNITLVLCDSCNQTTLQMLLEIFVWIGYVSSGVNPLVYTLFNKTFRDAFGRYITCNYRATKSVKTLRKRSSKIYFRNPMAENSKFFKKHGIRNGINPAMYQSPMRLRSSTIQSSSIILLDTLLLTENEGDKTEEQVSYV

adrenergic α2A receptor = target: T3, adrenergic α2A receptor (Homo sapiens, UniProt P08913); assay: Receptor binding, [3H]-rauwolscine
T3 sequence (P08913 1-465): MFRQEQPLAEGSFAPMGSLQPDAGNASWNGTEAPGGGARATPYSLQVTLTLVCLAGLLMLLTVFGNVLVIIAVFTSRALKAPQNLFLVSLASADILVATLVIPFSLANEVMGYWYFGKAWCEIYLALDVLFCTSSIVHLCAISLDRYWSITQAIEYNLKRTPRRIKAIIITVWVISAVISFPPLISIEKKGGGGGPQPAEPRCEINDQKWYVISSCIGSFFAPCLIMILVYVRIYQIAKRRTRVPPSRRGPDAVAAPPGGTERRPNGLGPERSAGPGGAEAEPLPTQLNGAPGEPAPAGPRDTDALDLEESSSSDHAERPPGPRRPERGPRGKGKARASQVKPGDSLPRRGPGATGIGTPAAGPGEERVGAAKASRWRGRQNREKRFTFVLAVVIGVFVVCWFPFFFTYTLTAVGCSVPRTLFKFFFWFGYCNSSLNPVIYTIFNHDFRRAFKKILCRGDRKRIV
Source text: Table 3 Monoamine transporter and receptor binding affinities of pyrovalerone and NEH. | column: α2A / Receptor Binding / Ki ± SD [μM] / [^3H]-Rauwolscine

dopaminergic D2 receptor = dopaminergic D2 receptor (Homo sapiens, UniProt P14416); assay: Receptor binding, [3H]-spiperone
Chain of dopaminergic D2 receptor (P14416 whole entry): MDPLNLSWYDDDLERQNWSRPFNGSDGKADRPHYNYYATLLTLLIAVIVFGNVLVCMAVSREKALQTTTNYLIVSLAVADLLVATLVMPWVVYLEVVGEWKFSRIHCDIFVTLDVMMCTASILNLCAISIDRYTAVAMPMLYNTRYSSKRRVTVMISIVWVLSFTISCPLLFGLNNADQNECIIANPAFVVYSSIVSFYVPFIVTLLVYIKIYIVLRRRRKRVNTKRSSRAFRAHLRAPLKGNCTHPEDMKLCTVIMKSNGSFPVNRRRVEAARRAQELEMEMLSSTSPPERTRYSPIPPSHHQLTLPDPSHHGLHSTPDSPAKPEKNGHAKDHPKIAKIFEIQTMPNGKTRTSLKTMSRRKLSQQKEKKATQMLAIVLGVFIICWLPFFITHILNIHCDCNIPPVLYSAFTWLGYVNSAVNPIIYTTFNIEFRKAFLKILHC
Source text: Table 3 Monoamine transporter and receptor binding affinities of pyrovalerone and NEH. | column: D2 / Receptor Binding / Ki ± SD [μM] / [^3H]-Spiperone

adrenergic α1A receptor = target: T4, adrenergic α1A receptor (Homo sapiens, UniProt P35348); assay: Receptor binding, [3H]-prazosin
T4 sequence (P35348 1-466): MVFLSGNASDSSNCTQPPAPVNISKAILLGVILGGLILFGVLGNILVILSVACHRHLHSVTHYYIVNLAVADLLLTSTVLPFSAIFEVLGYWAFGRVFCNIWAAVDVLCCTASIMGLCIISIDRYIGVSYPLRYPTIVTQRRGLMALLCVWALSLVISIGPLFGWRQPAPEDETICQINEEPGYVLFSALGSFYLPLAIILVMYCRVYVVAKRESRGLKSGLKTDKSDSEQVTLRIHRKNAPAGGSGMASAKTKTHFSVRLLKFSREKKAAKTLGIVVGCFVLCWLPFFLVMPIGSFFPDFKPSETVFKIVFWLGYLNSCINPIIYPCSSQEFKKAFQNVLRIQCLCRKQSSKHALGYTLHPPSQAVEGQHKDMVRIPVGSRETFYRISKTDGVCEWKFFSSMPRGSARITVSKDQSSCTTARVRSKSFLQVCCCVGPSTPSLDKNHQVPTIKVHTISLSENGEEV

hDAT = hDAT (Homo sapiens, UniProt Q01959); assay: Transporter binding, [3H]-WIN-35,428
Chain of hDAT (Q01959 whole entry): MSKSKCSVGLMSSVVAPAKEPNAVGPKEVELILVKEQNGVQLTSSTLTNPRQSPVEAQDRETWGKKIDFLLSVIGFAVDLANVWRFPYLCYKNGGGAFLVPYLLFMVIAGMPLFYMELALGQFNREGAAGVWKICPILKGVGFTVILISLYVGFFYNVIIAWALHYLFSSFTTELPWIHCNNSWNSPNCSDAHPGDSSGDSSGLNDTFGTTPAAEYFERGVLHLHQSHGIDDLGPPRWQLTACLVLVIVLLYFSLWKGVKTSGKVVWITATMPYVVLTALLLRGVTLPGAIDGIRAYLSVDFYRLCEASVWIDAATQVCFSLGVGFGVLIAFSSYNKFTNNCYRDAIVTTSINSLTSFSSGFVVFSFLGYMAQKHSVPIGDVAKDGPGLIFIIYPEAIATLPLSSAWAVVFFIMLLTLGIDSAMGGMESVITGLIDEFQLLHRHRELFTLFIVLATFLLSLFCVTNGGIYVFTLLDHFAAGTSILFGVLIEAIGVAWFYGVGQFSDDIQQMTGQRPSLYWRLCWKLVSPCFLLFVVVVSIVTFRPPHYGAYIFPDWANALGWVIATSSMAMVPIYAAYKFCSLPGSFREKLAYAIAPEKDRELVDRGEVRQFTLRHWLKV

hNET = hNET (Homo sapiens, UniProt P23975); assay: Transporter binding, N-methyl-[3H]-nisoxetine
Chain of hNET (P23975 whole entry): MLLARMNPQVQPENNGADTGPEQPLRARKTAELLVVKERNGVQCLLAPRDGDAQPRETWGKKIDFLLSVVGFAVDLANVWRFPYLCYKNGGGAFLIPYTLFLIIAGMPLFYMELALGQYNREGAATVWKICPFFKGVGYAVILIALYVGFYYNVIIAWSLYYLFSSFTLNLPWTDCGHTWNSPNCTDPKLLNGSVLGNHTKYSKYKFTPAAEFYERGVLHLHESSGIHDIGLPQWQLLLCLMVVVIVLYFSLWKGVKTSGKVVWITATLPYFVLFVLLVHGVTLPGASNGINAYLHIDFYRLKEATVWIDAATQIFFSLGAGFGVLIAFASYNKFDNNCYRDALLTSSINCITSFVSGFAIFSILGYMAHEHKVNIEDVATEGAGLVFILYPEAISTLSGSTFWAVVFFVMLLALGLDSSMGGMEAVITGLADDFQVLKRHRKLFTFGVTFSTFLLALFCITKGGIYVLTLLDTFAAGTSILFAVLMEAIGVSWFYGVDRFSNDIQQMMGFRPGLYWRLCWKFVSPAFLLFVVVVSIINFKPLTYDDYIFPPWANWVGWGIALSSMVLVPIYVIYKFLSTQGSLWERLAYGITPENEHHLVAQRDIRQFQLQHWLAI
Source text: Table 3 Monoamine transporter and receptor binding affinities of pyrovalerone and NEH. | column: hNET / Receptor Binding / Ki ± SD [μM] / N-Methyl-[^3H]-nisoxetine

hSERT = hSERT (Homo sapiens, UniProt P31645); assay: Transporter binding, [3H]-citalopram
Chain of hSERT (P31645 whole entry): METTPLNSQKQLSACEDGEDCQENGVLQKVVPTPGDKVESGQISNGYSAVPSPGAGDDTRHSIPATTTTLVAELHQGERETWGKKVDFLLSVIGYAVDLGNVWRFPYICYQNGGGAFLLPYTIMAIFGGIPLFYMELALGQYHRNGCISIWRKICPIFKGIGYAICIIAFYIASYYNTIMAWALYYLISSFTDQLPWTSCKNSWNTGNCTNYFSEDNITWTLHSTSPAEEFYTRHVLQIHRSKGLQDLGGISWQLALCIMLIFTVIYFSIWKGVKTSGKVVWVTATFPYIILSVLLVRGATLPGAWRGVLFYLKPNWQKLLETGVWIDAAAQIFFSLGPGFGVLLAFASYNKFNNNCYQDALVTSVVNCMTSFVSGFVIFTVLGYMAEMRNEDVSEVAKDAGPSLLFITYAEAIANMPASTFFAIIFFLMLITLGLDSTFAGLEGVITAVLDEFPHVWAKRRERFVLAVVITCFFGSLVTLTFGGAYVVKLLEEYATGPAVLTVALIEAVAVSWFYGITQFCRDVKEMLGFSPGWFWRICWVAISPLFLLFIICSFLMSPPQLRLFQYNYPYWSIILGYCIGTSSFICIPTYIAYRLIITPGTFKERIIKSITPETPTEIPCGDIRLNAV

Structure (SMILES)	EC50 (h5-HT2A receptor [1])	Ki (h5-HT2A receptor [2])	EC50 (h5-HT2B receptor)	Ki (adrenergic α2A receptor)	Ki (dopaminergic D2 receptor)	Ki (adrenergic α1A receptor)	Ki (hDAT)	Ki (hNET)	Ki (hSERT)
CNC(C)Cc1ccc2c(c1)OCO2 (stereo not drawn) [MDMA, 3,4-methylenedioxymethamphetamine, reference compound]	6.1 ± 0.3 µM	6.3 ± 2.4 µM	> 20 µM	–	–	–	–	–	–
Cc1ccc(C(=O)C(C)N2CCCC2)cc1 (stereo not drawn) [4-MePPP, 4-methyl-α-pyrrolidinopropiophenone]	–	–	–	> 4.7 µM	> 13 µM	2.2 ± 0.1 µM	0.3 ± 0.02 µM	2.5 ± 0.7 µM	> 7.4 µM
